These results are taken from patent publication EP0547705A1, “Pharmacologically active tricyclic benzotriazepine derivatives” (CONSEJO SUPERIOR DE INVESTIGACIONES CIENTIFICAS, priority 1991, dated 1993).

Data set [1] in a line: Antagonism of the effects of tetrabenazine (ptosis, akinesia, hypothermia), antidepressant activity. It counts as in vivo. Conditions: for prevents ptosis: 25 mg/kg p.o., tetrabenazine-induced ptosis; for antagonism to hypothermia produced by tetrabenazine: dose not restated (25 mg/kg p.o. given for ptosis in same sentence). As for the experimental part:
The antidepressant activity of these compounds is measured in terms of their capacity of antagonizing the effects of tetrabenazine (ptosis, akinesia and hypothermia), this action being characteristic of antidepressants such as amitriptiline or thianeptine (New Drugs: Discovery and Development. A.A. Rubin (Ed.), Marcel Dekker, Inc. New York-Basel, 203 (1978.)) For example, 2-[(5,10-dihydro-4,4-dioxo-5-methylthieno[3,4-c][2,1]benzothiazepin-10-yl)oxy]-N-methylethylamine (example 53) and 2-[(4,9-dihydro-2,9-dimethyl-10,10-dioxo-2H-pyrazolo[3,4-c][2,1]-benzothiazepin-4-yl)oxy]-1-ethylpyrrolidine (example 91) prevents ptosis at 25 mg/kg p.o., 100% and 90%, respectively, while the antagonism to hypothermia produced by tetrabenazine when administered is 85 % and 75 %, respectively.

Data set [2] is described as follows: Acute toxicity LD50 p.o. in mice. To be noted: mouse, in vivo, po, read-out: LD₅₀. As for the experimental part: (§1) The compounds of formula I are antidepressant, diuretic, antihypertensive, antihistamic, anticonvulsive, antipyretic, anti-inflammatory and/or analgesic agents. […] Exp. Biol. Med. 95, 729 (1957.)] In connection with its activity, this compound is very safe with a LD₅₀ of 1250 mg/kg p.o. in mice.

Data set [3] is described as follows: Siegmund test (inhibition of pain). Format: in vivo. Conditions: 100 mg/kg p.o. As for the experimental part: as §1

In the case of `CN1c2ccccc2C(OCCN2CCCC2)c2cn(C)nc2S1(=O)=O` (stereo not drawn) [example 91], in data set [1], the prevents ptosis stood at 90% and the “antagonism to hypothermia produced by tetrabenazine” value was 75%.
On to `CNCCOC1c2ccccc2N(C)S(=O)(=O)c2cscc21` (stereo not drawn) [example 53, 2-[(5,10-dihydro-4,4-dioxo-5-methylthieno[3,4-c][2,1]benzothiazepin-10-yl)oxy]-N-methylethylamine], for which, in data set [1], the prevents ptosis is on record as 100% and the “antagonism to hypothermia produced by tetrabenazine” value was determined as 85%.
For `CN1c2ccccc2C(O)c2sccc2S1(=O)=O` (stereo not drawn) [example 1, 5,10-dihydro-4,4-dioxo-10-hydroxy-5-methylthieno[3,2-c][2,1]benzothiazepine], the LD50 in data set [2] worked out at 1250 mg/kg. In data set [3], this molecule returned an inhibition of pain of 92%.
